From patent publication US20030022792A1, “HERBICIDAL COMPOSITIONS FOR TOLERANT OR RESISTANT CEREAL CROPS” (priority 1998, published 2003)

Tests used:
Type in all cases: in vivo
[1] = test system: Ambrosia maritima; test: Field trial with cereal (wheat), herbicidal action; conditions: application at start of stocking, scoring 11 days after application
Experimental: (§1) Transgenic cereal plants with a resistance to one or more herbicides (A) together with typical weed plants were grown in the open on 2×5 m plots under natural field conditions; alternatively, weed infestation occurred naturally when the cereal plants were grown.
(§2) […] The damage to, and the development of, all aerial parts of the plants was recorded. Scoring was done on the basis of a percentage sale (100% action=all plants destroyed; 50% action=50% of the plants and green parts of the plants destroyed; 0% action=no recognizable effect=like control plot. The mean of the score values of in each case 4 plots was calculated.

[2] = test system: Lamium purpureum; test: Field trial with cereal (wheat), herbicidal action; conditions: application at 4-leaf stage, scoring 28 days after application
Experimental: as §1
(§3) 2, 4, 6 and 8 weeks after the application, the herbicidal activity of the active substances or active substance mixtures was scored visually with reference to the treated plots in comparison to untreated control plots. The damage to, and the development of, all aerial parts of the plants was recorded. Scoring was done on the basis of a percentage sale (100% action=all plants destroyed; 50% action=50% of the plants and green parts of the plants destroyed; 0% action=no recognizable effect=like control plot. The mean of the score values of in each case 4 plots was calculated.

[3] = test system: Galium aparine; test: Field trial with cereal (wheat), herbicidal action; conditions: application at 4-leaf stage, scoring 28 days after application
Experimental: as §1, §3

[4] = test system: Lolium multiflorum; test: Field trial with cereal (wheat), herbicidal action; conditions: for Herbicidal action (%) against Lolium multiflorum: scoring 27 days after application
Experimental: as §1, §2

[5] = test system: Digitaria Sanguinalis; test: Field trial with cereals (wheat), herbicidal action; conditions: application at start of stocking, scoring 3 weeks after application
Experimental: as §1, §2

[6] = test system: Alopecurus myosuroides; test: as above; conditions: application at start of stocking, scoring 3 weeks after application
Experimental: as §1, §2

[7] = Lolium multiflorum, read-out: Herbicidal action (%) against Lolium multiflorum

`Cc1cc(Cl)ccc1OCC(=O)O` [(B4.2.4), MCPA] was tested, and the “Herbicidal action (%) against Ambrosia maritima” value ([1]; 500 g of a.s./ha) was 0%.
With `COC(=O)c1ccccc1S(=O)(=O)NC(=O)N(C)c1nc(C)nc(OC)n1` [(B4.1.1), tribenuron-methyl] the “Herbicidal action (%) against Lamium purpureum” value ([2]; 15 g of a.s./ha) was 68%.
`N#Cc1cc(Br)c(O)c(Br)c1` [(B4.3.1), bromoxynil] was tested, and the “Herbicidal action (%) against Lamium purpureum” value ([2]; 180 g of a.s./ha) was 55% and the “Herbicidal action (%) against Lamium purpureum” value ([2]; 360 g of a.s./ha) was 83%.
`COc1cc(OC)nc(NC(=O)NS(=O)(=O)N(C)S(C)(=O)=O)n1` [(B4.1.2), amidosulfuron] was tested, and the “Herbicidal action (%) against Galium aparine” value ([3]; 20 g of a.s./ha) was 75%.
In the case of `CCOC(=O)/C(Cl)=C/c1cc(N2C(=O)C3=C(CCCC3)C2=O)ccc1Cl` [(B4.1.6), cinidon-ethyl], the “Herbicidal action (%) against Galium aparine” value ([3]; 35 g of a.s./ha) is reported as 65%.
With `Cc1cc(Cl)ccc1O[C@@H](C)C(=O)O` [(B4.2.2), CMPP-P] the “Herbicidal action (%) against Galium aparine” value ([3]; 750 g of a.s./ha) was 73%.
With `COC(=O)c1ccc(NS(C)(=O)=O)cc1S(=O)(=O)NC(=O)Nc1nc(OC)cc(OC)n1` [(B2.3), methyl 4-methylsulfonylamino-2-(4,6-dimethoxypyrimidin-2-ylcarbamoylsulfamoyl)benzoate] the pest or weed control at 5 g/ha ([4]; Lolium multiflorum, wheat field trial, 5 g of a.s./ha, application at 3-leaf stage, scoring after application, read-out: Herbicidal action (%) against Lolium multiflorum) was 65%.
With `Nc1c(Cl)c(F)nc(OCC(=O)O)c1Cl` [(B4.2.5), fluroxypyr] the “Herbicidal action (%) against Galium aparine” value ([3]; 120 g of a.s./ha) was 75%.
`COC(=O)c1ccccc1S(=O)(=O)NC(=O)Nc1nc(C)nc(OC)n1` [(B2.1), metsulfuron-methyl] was tested, and the “Herbicidal action (%) against Lamium purpureum” value ([2]; 3 g of a.s./ha) was 75%.
With `CCC(CC)Nc1c([N+](=O)[O-])cc(C)c(C)c1[N+](=O)[O-]` [(B1.1.5), pendimethalin] the “Herbicidal action (%) against Lamium purpureum” value ([2]; 960 g of a.s./ha) was 75%.
In the case of `COC(=O)C(C)Oc1ccc(Oc2ccc(Cl)cc2Cl)cc1` (centres unmarked) [(B1.2.3), diclofop-methyl], the “Herbicidal action (%) against Lolium multiflorum” value ([4]; wheat field trial, 500 g of a.s./ha, application at 3-leaf stage) is reported as 60% and the “Herbicidal action (%) against Lolium multiflorum” value ([4]; wheat field trial, 750 g of a.s./ha, application at 3-leaf stage) is reported as 83%.
`CCOC(=O)COc1cc(-c2nn(C)c(OC(F)F)c2Cl)c(F)cc1Cl` [(B4.4.2), pyraflufen-ethyl] was tested, and the “Herbicidal action (%) against Digitaria Sanguinalis” value ([5]; 10 g of a.s./ha) was 0% and the “Herbicidal action (%) against Alopecurus myosuroides” value ([6]; 10 g of a.s./ha) was 0%.
With `CP(=O)(O)CCC(N)C(=O)O` (centres unmarked) [(A1.2), glufosinate-ammonium] the “Herbicidal action (%) against Ambrosia maritima” value ([1]; 200 g of a.s./ha) was 58%, the “Herbicidal action (%) against Ambrosia maritima” value ([1]; 400 g of a.s./ha) was 100% and the “Herbicidal action (%) against Ambrosia maritima” value ([1]; 600 g of a.s./ha) was 100%. It also gave a pest or weed control at 200 g/ha [4, 7] of 0%, a pest or weed control at 330 g/ha [4, 7] of 15% and a pest or weed control at 500 g/ha [4, 7] of 78%. The “Herbicidal action (%) against Lamium purpureum” value ([2]; 200 g of a.s./ha) was 8%, the “Herbicidal action (%) against Lamium purpureum” value ([2]; 330 g of a.s./ha) was 35% and the “Herbicidal action (%) against Galium aparine” value ([3]; 100 g of a.s./ha) was 0%. The “Herbicidal action (%) against Galium aparine” value ([3]; 200 g of a.s./ha) was 0%, the “Herbicidal action (%) against Galium aparine” value ([3]; 300 g of a.s./ha) was 0% and the “Herbicidal action (%) against Digitaria Sanguinalis” value ([5]; 200 g of a.s./ha) was 45%. The “Herbicidal action (%) against Digitaria Sanguinalis” value ([5]; 400 g of a.s./ha) was 90%, the “Herbicidal action (%) against Digitaria Sanguinalis” value ([5]; 600 g of a.s./ha) was 99% and the “Herbicidal action (%) against Alopecurus myosuroides” value ([6]; 200 g of a.s./ha) was 55%. The “Herbicidal action (%) against Alopecurus myosuroides” value ([6]; 400 g of a.s./ha) was 83% and the “Herbicidal action (%) against Alopecurus myosuroides” value ([6]; 600 g of a.s./ha) was 93%.
For `CCOC(=O)C(Cl)Cc1cc(-n2nc(C)n(C(F)F)c2=O)c(F)cc1Cl` (centres unmarked) [(B4.4.1), carfentrazone-ethyl], the “Herbicidal action (%) against Galium aparine” value ([3]; 10 g of a.s./ha) was 45% and the “Herbicidal action (%) against Galium aparine” value ([3]; 20 g of a.s./ha) was 55%.
`C#CCOC(=O)[C@@H](C)Oc1ccc(Oc2ncc(Cl)cc2F)cc1` [(B1.2.2), clodinafop-propargyl] showed a pest or weed control at 50 g/ha ([4]; Lolium multiflorum, wheat field trial, 50 g of a.s./ha, application at 3-leaf stage, scoring after application, read-out: Herbicidal action (%) against Lolium multiflorum) of 73%.
Work on `O=C(Nc1ccc(F)cc1F)c1cccnc1Oc1cccc(C(F)(F)F)c1` [Diflu, diflufenican] yielded a pest or weed control at 150 g/ha ([4]; Lolium multiflorum, wheat field trial, 150 g of a.s./ha, application at 3-leaf stage, scoring after application, read-out: Herbicidal action (%) against Lolium multiflorum) of 35%.
Work on `CCc1cnc(C2=NC(C)(C(C)C)C(=O)N2)c(C(=O)O)c1` (centres unmarked) [(A3.2), imazethapyr] yielded a pest or weed control at 70 g/ha ([4]; Lolium multiflorum, wheat field trial, 70 g of a.s./ha, application at 3-leaf stage, scoring after application, read-out: Herbicidal action (%) against Lolium multiflorum) of 0%.
`CCS(=O)(=O)c1nc2ccccn2c1S(=O)(=O)NC(=O)Nc1nc(OC)cc(OC)n1` [(B2.6), sulfosulfuron] showed a pest or weed control at 20 g/ha ([4]; Lolium multiflorum, wheat field trial, 20 g of a.s./ha, application at 3-leaf stage, scoring after application, read-out: Herbicidal action (%) against Lolium multiflorum) of 35%.
Work on `CC(C)N(C(=O)COc1nnc(C(F)(F)F)s1)c1ccc(F)cc1` [(B1.1.3), fluthiamide] yielded a pest or weed control at 180 g/ha ([4]; Lolium multiflorum, wheat field trial, 180 g of a.s./ha, application at 3-leaf stage, scoring after application, read-out: Herbicidal action (%) against Lolium multiflorum) of 25%.
Work on `COc1cc(OC)nc(NC(=O)NS(=O)(=O)c2nc(C(F)(F)F)ccc2C(=O)O)n1` [(B1.2.6), flupyrsulfuron] yielded a pest or weed control at 7.5 g/ha [4, 7] of 25%.
With `CC(C)c1ccc(NC(=O)N(C)C)cc1` [(B1.1.1), isoproturon] the pest or weed control at 1500 g/ha ([4]; Lolium multiflorum, wheat field trial, 1500 g of a.s./ha, application at 3-leaf stage, scoring after application, read-out: Herbicidal action (%) against Lolium multiflorum) was 55%.
